Laboratory results published in US8981094B2, “Piperidine/piperazine derivatives” (Janssen Pharmaceutica N.V., priority 2007, dated 2015).

What follows are compounds tested against T1, human DGAT1 (Homo sapiens, UniProt O75907) (assay: Inhibition of DGAT1 activity, FlashPlate assay with DGAT1 membrane preparations and substrate micelles). Settings: pIC50 = -logIC50, IC50 values expressed in M.
T1 construct: FLAG (N); made in house; host or cells: SF9 insect cells (pFastBac baculovirus); total cell membranes
T1 sequence (O75907 1-488): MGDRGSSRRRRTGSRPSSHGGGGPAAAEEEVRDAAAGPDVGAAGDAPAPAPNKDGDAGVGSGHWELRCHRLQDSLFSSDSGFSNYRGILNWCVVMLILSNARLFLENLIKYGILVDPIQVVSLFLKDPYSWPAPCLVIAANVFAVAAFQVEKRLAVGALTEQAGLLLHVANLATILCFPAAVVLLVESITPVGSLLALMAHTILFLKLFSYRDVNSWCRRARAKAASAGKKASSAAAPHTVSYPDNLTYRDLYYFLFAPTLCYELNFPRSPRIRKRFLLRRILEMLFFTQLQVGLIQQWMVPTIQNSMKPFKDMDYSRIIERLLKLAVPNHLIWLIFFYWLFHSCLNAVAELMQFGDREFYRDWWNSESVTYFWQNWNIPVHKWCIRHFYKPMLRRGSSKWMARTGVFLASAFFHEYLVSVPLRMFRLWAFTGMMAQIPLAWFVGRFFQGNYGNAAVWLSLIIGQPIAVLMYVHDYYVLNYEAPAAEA
Assay type: biochemical
Excerpt: A) Measurement of Inhibition of DGAT1 Activity by the Present Compounds
The inhibiting activity of the present compounds on DGAT1 activity was screened in a single well procedure assay using DGAT1 comprising membrane preparations and DGAT1 substrate comprising micelles and determining formed radio-active triacylglycerol coming in close proximity of a flashplate surface by radio luminescence.
Said assay is described in full detail in WO2006/067071, the content of which is incorporated herein by reference.
By DGAT1 activity is meant the transfer of coenzyme A activated fatty acids to the 3-position of 1,2-diacylglycerols, thus forming a triglyceride molecule, by enzyme DGAT1.
human DGAT1 (NM012079.2) was cloned into the pFastBac vector, containing translation start, a FLAG-tag at the N-terminus as described in literature and a viral Kozak sequence (AAX) preceding the ATG to improve expression in insect cells. Expression was done as described in literature (Cases, S., Smith, S. J., Zheng, Y., Myers H. M., Lear, S. R., Sande, E., Novak, S., Collins, C., Welch, C. B., Lusis, A. J., Erickson, S. K. and Farese, R. V. (1998) Proc. Natl. Acad. Sci. USA 95, 13018-13023.) using SF9 cells.
72 h transfected SF9 cells were collected by centrifugation (13000 rpm-15 min-4° C.) and lysed in 2×500 ml lysisbuffer (0.1M Sucrose, 50 mM KCl, 40 mM KH2PO4, 30 mM EDTA pH 7.2. Cells were homogenized by cell disruptor. After centrifugation 1380 rpm-15 min-4° C. (SN discarded), pellet was resuspended in 500 ml lysisbuffer and total cell membranes collected by ultracentrifugation at 34000 rpm(100 000 g) for 60 min (4° C.). The collected membranes were resuspended in lysis buffer, divided in aliquots and stored with 10% glycerol at −80° C. until use.
Add 1 ml dioleoyl-sn-glycerol (10 mg/ml) to 10 ml of L-α-phosphatidylcholine (1 mg/ml) and 10 ml of L-α-phosphatidyl-L-serine (1 mg/ml) in a thick glass recipient. Evaporate under nitrogen and put on ice for 15 minutes. Reconstitute in 10 ml Tris/HCl (10 mM, pH 7.4) by sonication on ice. The sonification process consists of sonification cycles of 10 seconds in the sonification bath followed by 10 seconds cool down on ice and repeating this sonification cycle till a homogeneous solution is obtained (takes about 15 minutes). The thus obtained micelles are stored at −20° C. till later use and contain DAG at a final concentration of 1.61 mM.
c) Substrate mix (for 1 384 well plate=3840 μl) • 612 μl micelles stock (51 μM final) • 16.6 μl oleoylCoA 9.7 mM • 23 μl [^3H]-oleoylCoA (49 Ci/mmol, 500 μCi/ml) • 3188.4 μl Tris pH 7.4, 10 mM
d) Enzyme mix (for 1 384 well plate=3520 μl) (5 μg/ml) • Add 11.73 μl of DGAT membrane stock (1500 μg/ml stock) to 3508 μl assay buffer.
e) Stop mix (for 1 384 well plate=7.68 ml) (250 mM) • Add 384 μl of N-ethylmaleimide (5M) to 3.456 ml DMSO 100%, and further dilute 3.84 ml of said solution with 3.84 ml DMSO 10%.
DGAT activity in membrane preparations was assayed in 50 mM Tris-HCl (pH 7.4), 150 mM MgCl2, 1 mM EDTA and 0.2% BSA, containing 50 μM DAG, 32 μg/ml PC/PS and 8.4 μM [^3H]-oleoylCoA (at a specific activity of 30 nCi/well) in a final volume of 50 μl in 384-well format using the red shifted Basic Image FlashPlate™ (Perkin Elmer Cat.No. SMP400).
In detail, 10 μl enzyme mix and 10 μl substrate mix were added to 30 μl of assay buffer, optionally in the presence of 1 μl DMSO (blank and controls) or 1 μl of the compound to be tested. This reaction mixture was incubated for 120 minutes at 37° C. and the enzymatic reaction stopped by adding 20 μl of the stop mix. The plates were sealed and the vesicles allowed to settle overnight at room temperature. Plates were centrifuged for 5 minutes at 1500 rpm and measured in Leadseeker. […]

IC50 [nM] | SMILES
692 | CCC(C(=O)Nc1ccc(N2CCN(C(=O)Cc3ccccc3C)CC2)cc1)c1ccccc1 (stereo not shown) [Compound 336]
2880 | CC(=O)NC1(C(=O)Nc2ccc(N3CCN(C(=O)Nc4c(Cl)cccc4Cl)CC3)cc2)CCCC1 [Compound 2]
126 | O=C(CCCc1ccccc1)Nc1ccc(N2CCN(C(=O)Nc3c(Cl)cccc3Cl)CC2)c(CO)c1 [Compound 326]
7.76 | CN(CC(=O)Nc1ccc(C2CCN(C(=O)Nc3c(Cl)cccc3Cl)CC2)cc1)C(=O)OC(C)(C)C [Compound 40]
49 | Cc1cccc(NCC(=O)Nc2ccc(C3CCN(C(=O)Nc4c(Cl)cccc4Cl)CC3)cc2)c1 [Compound 97]
53.7 | CCCC(=O)N(C)CC(=O)Nc1ccc(N2CCN(C(=O)Nc3c(Cl)cccc3Cl)CC2)cc1 [Compound 169]
115 | CC(C)(C)OC(=O)NCC(=O)Nc1ccc(C2CCN(C(=O)Nc3c(Cl)cccc3Cl)CC2)cc1 [Compound 212]
4.57 | COc1ccc(CC(=O)Nc2ccc(N3CCN(C(=O)Nc4c(Cl)cc(OC)cc4Cl)CC3)cc2)cc1 [Compound 15]
8.32 | O=C(NCc1cccc(N2CCCC2)c1)c1ccc(N2CCN(C(=O)Nc3c(Cl)cc(CN4CCCC4)cc3Cl)CC2)cc1 [Compound 224]
145 | COc1ccc(CNC(=O)c2ccc(N3CCN(C(=O)Nc4c(Cl)cncc4Cl)CC3)cc2)cc1 [Compound 245]
38 | CCCCC(=O)Nc1ccc(C2CCN(C(=O)Nc3c(Cl)cccc3Cl)CC2)cc1 [Compound 130]
20.9 | O=C(CCC(=O)OCc1ccccc1)Nc1ccc(N2CCN(C(=O)Nc3c(Cl)cccc3Cl)CC2)cc1 [Compound 302]
22.9 | COc1ccc(NC(=O)N2CCN(c3ccc(NC(=O)CCCc4ccccc4)cc3)CC2)c(C)c1 [Compound 65]
4.57 | O=C(CC(=O)OCc1ccccc1)Nc1ccc(N2CCN(C(=O)Nc3c(Cl)cccc3Cl)CC2)cc1 [Compound 277]
214 | O=C(CNCc1ccccc1)Nc1ccc(C2CCN(C(=O)Nc3c(Cl)cccc3Cl)CC2)cc1 [Compound 117]
13.8 | O=C(Cc1ccsc1)Nc1ccc(N2CCN(C(=O)Nc3c(Cl)cccc3Cl)CC2)cc1 [Compound 142]
3980 | COc1ccc(CC(=O)Nc2ccc(N3CCN(C(=O)C4(c5c(Cl)cccc5Cl)CC4)CC3)cc2)cc1 [Compound 342]
871 | O=C(Cn1ccnc1)Nc1ccc(C2CCN(C(=O)Nc3c(Cl)cccc3Cl)CC2)cc1 [Compound 123]
11.7 | O=C(NCc1cccc(N2CCCC2)c1)c1ccc(N2CCN(C(=O)Nc3c(Cl)cc(CCN4CCCC4)cc3Cl)CC2)cc1 [Compound 227]
174 | COc1ccc(NC(=O)N2CCN(c3ccc(NC(=O)CCCc4ccccc4)cc3)CC2)c([N+](=O)[O-])c1 [Compound 74]
91.2 | CN(C)CCNC(=O)c1cc(Cl)c(NC(=O)N2CCN(c3ccc(NC(=O)CCCc4ccccc4)cc3)CC2)c(Cl)c1 [Compound 321]
269 | CC(NC(=O)OC(C)(C)C)C(=O)Nc1ccc(C2CCN(C(=O)Nc3c(Cl)cccc3Cl)CC2)cc1 (stereo not shown) [Compound 206]
2340 | CN(C)CC(=O)Nc1ccc(C2CCN(C(=O)Nc3c(Cl)cccc3Cl)CC2)cc1 [Compound 109]

IC50 [nM] | SMILES
490 | Cc1ccc(CC(=O)Nc2ccc(N3CCN(C(=O)Nc4cccc5ccccc45)CC3)cc2)c(C)c1 [Compound 38]
1100 | CCCCCCC(=O)Nc1ccc(N2CCN(C(=O)N(C)c3c(Cl)cccc3Cl)CC2)cc1 [Compound 10]
50.1 | CC1CN(CC(=O)Nc2ccc(C3CCN(C(=O)Nc4c(Cl)cccc4Cl)CC3)cc2)CC(C)O1 (stereo not shown) [Compound 98]
209 | C=CCC(NC(=O)OC(C)(C)C)C(=O)Nc1ccc(C2CCN(C(=O)Nc3c(Cl)cccc3Cl)CC2)cc1 (stereo not shown) [Compound 207]
5010 | CC(C(=O)N1CCN(c2ccc(NC(=O)CCCc3ccccc3)cc2)CC1)c1ccc(O)cc1 (stereo not shown) [Compound 347]
603 | COc1ccc(NC(=O)N2CCN(c3ccc(NC(=O)CCCc4ccccc4)cc3)CC2)c(OC)c1 [Compound 75]
3.98 | COCCNC(C)c1cc(Cl)c(NC(=O)N2CCN(c3ccc(NC(=O)CCCc4ccccc4)cc3)CC2)c(Cl)c1 (stereo not shown) [Compound 274]
123 | O=C(CCCc1ccccn1)Nc1ccc(N2CCN(C(=O)Nc3c(Cl)cccc3Cl)CC2)cc1 [Compound 195]
26.3 | COCCNC(=O)c1cc(Cl)c(NC(=O)N2CCN(c3ccc(NC(=O)CCCc4ccccc4)cc3)CC2)c(Cl)c1 [Compound 306]
22.4 | CN(CC(=O)Nc1ccc(N2CCN(C(=O)Nc3c(Cl)cccc3Cl)CC2)cc1)C(=O)CC(C)(C)C [Compound 167]
129 | O=C(NCC12CC3CC(CC(C3)C1)C2)c1ccc(N2CCN(C(=O)Nc3c(Cl)cc(CN4CCCC4)cc3Cl)CC2)cc1 [Compound 243]
646 | O=C(CCN1CCOCC1)Nc1ccc(C2CCN(C(=O)Nc3c(Cl)cccc3Cl)CC2)cc1 [Compound 125]
138 | CCOC(=O)c1ccc(N2CCCN(CC(=O)Nc3ccc(C4CCN(C(=O)Nc5c(Cl)cccc5Cl)CC4)cc3)CC2)cc1 [Compound 101]
51.3 | CC(=O)NCCNC(=O)c1cc(Cl)c(NC(=O)N2CCN(c3ccc(NC(=O)CCCc4ccccc4)cc3)CC2)c(Cl)c1 [Compound 314]
245 | CCC(=O)N(C)CC(=O)Nc1ccc(N2CCN(C(=O)Nc3c(Cl)cccc3Cl)CC2)cc1 [Compound 170]
166 | COCC(NC(=O)OC(C)(C)C)C(=O)Nc1ccc(C2CCN(C(=O)Nc3c(Cl)cccc3Cl)CC2)cc1 (stereo not shown) [Compound 209]
166 | O=C(CC1CCCCC1)Nc1ccc(C2CCN(C(=O)Nc3c(Cl)cccc3Cl)CC2)cc1 [Compound 124]
5250 | COc1cc(C(O)C(=O)N2CCN(c3ccc(NC(=O)CCCc4ccccc4)cc3)CC2)ccc1O (stereo not shown) [Compound 348]
339 | COc1ccc(CC(=O)Nc2ccc(N3CCN(C(=O)C(O)c4ccc(CN5CCCC5)cc4Cl)CC3)cc2)cc1 (stereo not shown) [Compound 352]
10.7 | CC(NCCCO)c1cc(Cl)c(NC(=O)N2CCN(c3ccc(NC(=O)CCCc4ccccc4)cc3)CC2)c(Cl)c1 (stereo not shown) [Compound 57]
162 | O=C(NCc1ccccc1F)c1ccc(N2CCN(C(=O)Cc3c(Cl)cccc3Cl)CC2)cc1 [Compound 249]
35.5 | O=C(CCCc1ccccc1)Nc1ccc(N2CCN(C(=O)C(O)c3ccc(F)cc3Cl)CC2)cc1 (stereo not shown) [Compound 309]
1410 | COCCN(C)CC(=O)Nc1ccc(C2CCN(C(=O)Nc3c(Cl)cccc3Cl)CC2)cc1 [Compound 110]
